Target: T1, Dimer of Gag-Pol polyprotein [501-599,Q508K,L534I,L564I,C568A,C596A] (Human immunodeficiency virus 1, UniProt P03367, C568A/C596A/L534I/L564I/Q508K)
T1 construct: 501-599
Assay: Protease Inhibition Assay
Details: pH 6.4; 25 °C
Method: The Ki values were determined using fluorogenic substrate, 2-(aminobenzoyl)-Thr-Ile-Nle-Phe(p-NO2)-Gln-ArgNH2. A standard curve relating changes in fluorescent intensity to changes in concentration of product was used to convert fluorescent changes into molar velocities. The amount of cleavage was determined by HPLC.

With `O=C(N[C@H]1c2ccccc2C[C@H]1O)[C@H](Cc1ccccc1)C[C@H](O)CN1C(=O)[C@H](Cc2ccccc2)C[C@@H]1Cc1ccccc1` [(2R,4S)-2-benzyl-5-[(3R,5R)-3,5-dibenzyl-2-oxopyrrolidin-1-yl]-4-hydroxy-N-[(1S,2R)-2-hydroxy-2,3-dihydro-1H-inden-1-yl]pentanamide] the Ki was > 0.5 nM.
